{
  "source": "patent US20240335465A1",
  "about": "(University of Virginia Patent Foundation, priority 2021, published 2024)",
  "key": {"PARP": {"test_system": "PARP", "test": "PARP activity assay", "format": "cell-based, human", "protocol": "Post cGAMP treatment, cells were collected by centrifugation and washed with cold PBS once and resuspended in Cell Extraction Buffer. PARP activity was measured using the Chemiluminescent Assay Kit (R&D, Catalog Number: 4685-096-K) following manufacturer's protocol."}, "U2OS-STING cells [1]": {"test_system": "U2OS-STING cells", "test": "RIF1 and phospho-53BP1 foci immunofluorescence", "format": "cell-based, human", "conditions": "pretreated with cGAMP, then etoposide or camptothecin", "protocol": "Immunofluorescence Staining: 16,500 adherent cells/cm^2 were plated on a gelatin coated 8-chamber slide (VWR, Catalogue #62407-296) and treated as indicated. Media was removed and cells were washed with 1×PBS with Ca^2+/Mg^2+ and fixed with 4% PFA for 20 minutes. Fixed cells were permeabilized with PBS+0.1% Triton-X and washed 3 times with PBS+0.1% Tween20. After treatment as indicated, non-adherent THP1 cells were collected by centrifugation, washed in cold PBS and fixed in PFA. Post-fixation, they were washed with PBS, spotted on gelatin coated “PTFE” Printed Slides (Electron Microscopy Sciences, Cat #63424-06), and air-dried. For γH2AX staining, permeabilized cells were blocked in Serum-free DAKO Protein Block (Agilent, Catalogue #X0909) for 1 hr at room temperature. Cells were incubated in primary antibody (γH2AX, 1:500; anti-HA, 1:100; Table 1) in DAKO antibody diluent at 4° C. overnight on a rocker platform. U2OS-STING cells undergoing Rad51 staining were first fixed in methanol for 20 minutes in −20° C., blocked for 1 hr with donkey block (2% normal donkey serum, 1% BSA, 0.1% Triton X 100, 0.05% Tween20, 0.05% Sodium Azide in PBS), then finally incubated in an anti-Rad51 antibody overnight at 4° C. (Bio-academia Cat #70-001, 1:6000 in 5% milk in TBST). […]"}, "PARP1, PARP2, Tankyrase": {"test_system": "PARP1, PARP2, Tankyrase", "test": "PARP1, PARP2, Tankyrase abundance immunoblot", "format": "cell-based, human"}, "U2OS-STING cells [2]": {"test_system": "U2OS-STING cells", "test": "RAD51 and RPA70 foci in EdU+ U2OS-STING cells", "format": "cell-based, human", "conditions": "EdU-positive S-phase cells, Camptothecin 5 μM 16 hours", "protocol": "Immunofluorescence Staining: 16,500 adherent cells/cm^2 were plated on a gelatin coated 8-chamber slide (VWR, Catalogue #62407-296) and treated as indicated. Media was removed and cells were washed with 1×PBS with Ca^2+/Mg^2+ and fixed with 4% PFA for 20 minutes. Fixed cells were permeabilized with PBS+0.1% Triton-X and washed 3 times with PBS+0.1% Tween20. After treatment as indicated, non-adherent THP1 cells were collected by centrifugation, washed in cold PBS and fixed in PFA. Post-fixation, they were washed with PBS, spotted on gelatin coated “PTFE” Printed Slides (Electron Microscopy Sciences, Cat #63424-06), and air-dried. For γH2AX staining, permeabilized cells were blocked in Serum-free DAKO Protein Block (Agilent, Catalogue #X0909) for 1 hr at room temperature. Cells were incubated in primary antibody (γH2AX, 1:500; anti-HA, 1:100; Table 1) in DAKO antibody diluent at 4° C. overnight on a rocker platform. […]\nEdU incorporated cells were detected by confocal microscopy after Click-iT® EdU labeling following the manufacturer's protocol (Click-iT™ EdU Alexa Fluor™ 594 Imaging Kit, Thermo Fisher Cat #C10339)."}, "THP1 cells [3]": {"test_system": "THP1 cells", "test": "Quantitative RT-PCR gene expression in THP1 cells", "format": "cell-based, human", "excerpt": "Quantitative RT-PCR analysis: Cells collected at indicated time points were washed with ice cold PBS and lysed in lml Trizol (Invitrogen). Total RNA extracted according to the manufacturer's recommendations was DNase treated and reverse transcribed to make cDNA with a QuantiTect Reverse Transcription kit (QIAGEN). The cDNAs synthesized were amplified by real-time quantitative PCR (Applied Biosystems 7900 HT Fast Real-Time PCR system) with Power SYBR green Master Mix. Relative gene expression was determined by the 2-ΔΔCt method, and 18S rRNA or GAPDH was used as an internal control. Primer details in Table 2."}, "Crassostrea virginica": {"test_system": "Crassostrea virginica", "test": "DDR in oysters after adductor muscle injection", "format": "in vivo", "conditions": "hemocytes; cGAMP 25 μg/50 gm, doxorubicin 1 μg/50 gm oyster weight, 16 hours", "protocol": "Oysters: Wild adult eastern oysters (Crassostrea virginica) of both male and female sexes ranging from 2 cm-7 cm in length (1 to 3 years in age) were collected from a natural oyster reef on Virgnia's Eastern Shore. Following collection, the diploid oysters were placed on ice and transported approximately 3 h to the University of Virginia main campus in Charlottesville, VA. There they were stored in an aerated aquarium containing water supplemented with Instant Ocean® Aquarium Sea Salt (50 gm/l). […] Treated oysters were kept at 4° C. in the dark for 16 hours after which they were shucked, had their hemolymph/tissues harvested for analysis by western blotting, and dead oyster and shell were disposed of."}, "DDR signaling": {"test_system": "DDR signaling", "test": "DDR signaling immunoblotting in primary mouse embryonic fibroblasts"}, "THP1 cells [4]": {"test_system": "THP1 cells", "test": "Alkaline comet assay in THP1 cells", "format": "cell-based, human", "protocol": "Comet assays: DNA damage in individual cells was assessed using OxiSelect™ Comet Assay Kits (Cell Biolabs, Cat #STA-351) according to the manufacturer's protocol. THP1 cells were treated as indicated, collected by centrifugation, washed twice with ice-cold PBS, and resuspended in cold PBS at 1×10^5 cells/ml. Cells were mixed with molten Comet agarose (1:10, v/v) and immediately transferred to wells of the Comet Agarose Base Layer (pre-prepared by adding 75 μl molten agarose to Comet slides) in 75 μl aliquots. Cells were embedded on the agarose by cooling the gel at 4° C. for 15 minutes in the dark and then lysed in pre-chilled lysis buffer for 60 minutes at 4° C. The cell-containing slides were neutralized in pre-chilled alkaline buffer for 30 minutes and then carefully transferred to a horizontal electrophoresis chamber. Electrophoresis was conducted in cold Alkaline Electrophoresis Solution (300 mM NaOH, pH>13, 1 mM EDTA) for 30 minutes at 1 volt/cm (300 mA current). The samples were washed three times in pre-chilled water and immersed in 70% ethanol for 5 minutes. The cells were subsequently air dried and their DNA stained with 100 μl/well of diluted Vista Green DNA Dye. After incubating at room temperature, cells were finally visualized under a fluorescence microscope using an FITC filter. Comet length was quantified using OpenComet software as described before (Gyori et al., 2014)."}, "[5]": {"test_system": "HEK293-ACE reporter cells", "test": "ACE CRISPR/Cas9 reporter system", "format": "cell-based, human", "conditions": "cGAMP transfection; interferon β 50 ng/ml", "experimental": "ACE CRISPR/Cas9 reporter system: The ACE reporter (Addgene #109428) described previously (Aird et al., 2018; St. Martin et al., 2018) was integrated in HEK293 cells using lentiviral transduction. ACE reporter integrated cells (GFP+) were sorted in a Becton Dickinson Influx Cell Sorter and propagated. […] 72 hours post RNP transfection, cells were trypsinized, collected, and analyzed with an Attune NxT flow cytometer (Thermofisher). To quantify the HDR DNA repair events, ˜10,000-30,000 cells were acquired on an Attune NxT cytometer and analyzed using FCS Express software. Single cell events were determined by gating on the area against the width of the forward scatter pulse signal. Debris removal was performed by excluding events with very low forward and side scatter. For determining % of mCherry positive cells we established positive and negative populations using mock transfections as negative controls and mCherry transfected samples as Fluorescence Minus One controls."}},
  "data": [
    {"smiles": "Nc1nc2c(ncn2[C@@H]2O[C@@H]3COP(=O)(O)O[C@H]4[C@@H](O)[C@H](n5cnc6c(N)ncnc65)O[C@@H]4COP(=O)(O)O[C@@H]2[C@@H]3O)c(=O)[nH]1", "note": "[cGAMP, cyclic guanosine monophosphate-adenosine monophosphate]", "values": [
      {"measurement": "PARP enzymatic activity in cell lysates", "setting": "PARP; THP1, cGAMP 6 hours, Rucaparib 10 μM, 6 hr", "result": "reduction in the PARP enzymatic activity"},
      {"measurement": "STING dependence of cGAMP-induced reduction in PARP enzymatic activity", "setting": "PARP; WT and STING−/− THP1", "result": "dependent on STING"},
      {"measurement": "RIF1 and phospho-53BP1 foci formation", "setting": "U2OS-STING cells [1]", "result": "augmented the RIF1 and phospho-53BP1 foci formation"},
      {"measurement": "abundance of PARP1", "setting": "PARP1, PARP2, Tankyrase; THP1 and HEK293 cells", "result": "significantly augmented"},
      {"measurement": "abundance of PARP1, PARP2, Tankyrase", "setting": "PARP1, PARP2, Tankyrase; cGAMP-stimulated cells", "result": "no decrease in the abundance of PARP1, PARP2, or Tankyrase"},
      {"measurement": "DNA damage-induced RAD51 and RPA foci formation", "setting": "U2OS-STING cells [2]", "result": "suppressed DNA damage-induced RAD51 and RPA foci formation in EdU-positive S-phase cells"},
      {"measurement": "dependence of DDR gene induction on STING and TBK1", "setting": "THP1 cells [3]; STING−/− THP1, 10 μM MRT67307 2 hours then cGAMP 6 hours", "result": "dependent on STING and TBK1"},
      {"measurement": "induction of IFN genes (IFN-β and ISGs)", "setting": "THP1 cells [3]; THP1, exogenous cGAMP 1 μg vs transfected HT-DNA 2 μg", "result": "comparable to that of cytosolic DNA-induced, endogenously produced cGAMP"},
      {"measurement": "CDKN1A/p21 transcript", "setting": "THP1 cells [3]; WT THP1, 6 hours", "result": "strong induction of CDKN1A/p21"},
      {"measurement": "transcript abundance of E2F target genes", "setting": "THP1 cells [3]; WT THP1, 6 hours", "result": "decreased transcript abundance of E2F target genes"},
      {"measurement": "TBK1 phosphorylation (pTBK1)", "setting": "Crassostrea virginica", "result": "TBK1 phosphorylation"},
      {"measurement": "γH2AX", "setting": "Crassostrea virginica", "result": "elevated levels of γH2AX"},
      {"measurement": "cGAMP-induced H2AX phosphorylation", "setting": "DDR signaling; Ifnar1−/− or Stat2−/− primary MEFs", "result": "unimpaired"},
      {"measurement": "activation of DDR marker γH2AX", "setting": "DDR signaling; Irf3−/− primary MEFs, 16 hours", "result": "proceeded normally"},
      {"measurement": "activation of DDR by cGAMP (γH2AX)", "setting": "DDR signaling; Sting−/− primary MEFs, 16 hours", "result": "abrogated by the deletion of STING"},
      {"measurement": "DDR activation (γH2AX)", "setting": "DDR signaling; WT primary MEF, Pam3CSK4 500 ng/ml 6 hours, HT-DNA 4 ug/6-well 6 hours, 5′ppp-dsRNA 0.5 μg/6 well 6 hours, cGAMP 16 hours", "result": "activated the DDR"},
      {"measurement": "camptothecin-induced DNA damage (comet tail length)", "setting": "THP1 cells [4]; THP1, cGAMP 6 hours then 1 μM camptothecin 16 hours", "result": "exacerbates camptothecin-induced DNA damage"},
      {"measurement": "DNA strand breaks in comet assay", "setting": "THP1 cells [4]; THP1 cells, cGAMP 16 hours", "result": "no strand breaks were observed"},
      {"measurement": "HDR-mediated CRISPR editing (mCherry positive cells)", "setting": "[5]", "result": "significantly dampened HDR-mediated CRISPR editing"}
    ]}
  ]
}
